# In paper PMC6599640 (Pharmaceutical research, 2018):
# Where two headings read alike, the source gives them in different places.
# Assays:
# [1] = MTT viability assay on SMI microtissues after drug exposure; details: human, SMI (small intestinal) microtissues
# [2] = in vitro; details: human, Caco-2
# [3] = biological target: P-gp (Homo sapiens, UniProt P08183); assay: in vitro
# [4] = Drug permeability across SMI microtissues; details: human, A-B Papp, Table VIII, 10 μM, 2 h, n = 3
# [5] = system: SMI microtissues; assay: Drug permeability across SMI microtissues; details: for Efflux: Table VIII, 10 μM, 2 h
# [6] = biological target: BCRP (Homo sapiens, UniProt Q9UNQ0); assay: in vitro
# Sequence of BCRP (Q9UNQ0 whole entry): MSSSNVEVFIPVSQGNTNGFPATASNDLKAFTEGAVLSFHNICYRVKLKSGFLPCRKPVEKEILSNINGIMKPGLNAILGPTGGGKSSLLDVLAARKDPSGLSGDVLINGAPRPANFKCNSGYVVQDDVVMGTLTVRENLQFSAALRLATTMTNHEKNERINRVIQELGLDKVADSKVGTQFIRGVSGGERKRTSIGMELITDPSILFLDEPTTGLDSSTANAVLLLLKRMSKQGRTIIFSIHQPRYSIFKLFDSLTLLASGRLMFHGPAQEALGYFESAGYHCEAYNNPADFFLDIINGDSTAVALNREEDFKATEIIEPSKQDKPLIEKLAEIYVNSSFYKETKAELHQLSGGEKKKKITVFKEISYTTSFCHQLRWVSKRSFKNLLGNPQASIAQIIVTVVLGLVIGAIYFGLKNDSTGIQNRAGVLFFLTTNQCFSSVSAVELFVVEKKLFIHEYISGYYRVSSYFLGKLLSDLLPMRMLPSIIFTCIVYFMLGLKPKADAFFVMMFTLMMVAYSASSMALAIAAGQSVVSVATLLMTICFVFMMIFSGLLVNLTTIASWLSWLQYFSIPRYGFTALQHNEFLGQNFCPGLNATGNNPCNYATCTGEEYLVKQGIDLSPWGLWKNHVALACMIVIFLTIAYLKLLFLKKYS
# [7] = system: Caco-2 cell monolayers; details: Table VI; 10 μM, 2 h
# [8] = cited from earlier work
# [9] = system: SMI microtissues
# [10] = in vitro; details: human
# Sequence of P-gp (P08183 whole entry): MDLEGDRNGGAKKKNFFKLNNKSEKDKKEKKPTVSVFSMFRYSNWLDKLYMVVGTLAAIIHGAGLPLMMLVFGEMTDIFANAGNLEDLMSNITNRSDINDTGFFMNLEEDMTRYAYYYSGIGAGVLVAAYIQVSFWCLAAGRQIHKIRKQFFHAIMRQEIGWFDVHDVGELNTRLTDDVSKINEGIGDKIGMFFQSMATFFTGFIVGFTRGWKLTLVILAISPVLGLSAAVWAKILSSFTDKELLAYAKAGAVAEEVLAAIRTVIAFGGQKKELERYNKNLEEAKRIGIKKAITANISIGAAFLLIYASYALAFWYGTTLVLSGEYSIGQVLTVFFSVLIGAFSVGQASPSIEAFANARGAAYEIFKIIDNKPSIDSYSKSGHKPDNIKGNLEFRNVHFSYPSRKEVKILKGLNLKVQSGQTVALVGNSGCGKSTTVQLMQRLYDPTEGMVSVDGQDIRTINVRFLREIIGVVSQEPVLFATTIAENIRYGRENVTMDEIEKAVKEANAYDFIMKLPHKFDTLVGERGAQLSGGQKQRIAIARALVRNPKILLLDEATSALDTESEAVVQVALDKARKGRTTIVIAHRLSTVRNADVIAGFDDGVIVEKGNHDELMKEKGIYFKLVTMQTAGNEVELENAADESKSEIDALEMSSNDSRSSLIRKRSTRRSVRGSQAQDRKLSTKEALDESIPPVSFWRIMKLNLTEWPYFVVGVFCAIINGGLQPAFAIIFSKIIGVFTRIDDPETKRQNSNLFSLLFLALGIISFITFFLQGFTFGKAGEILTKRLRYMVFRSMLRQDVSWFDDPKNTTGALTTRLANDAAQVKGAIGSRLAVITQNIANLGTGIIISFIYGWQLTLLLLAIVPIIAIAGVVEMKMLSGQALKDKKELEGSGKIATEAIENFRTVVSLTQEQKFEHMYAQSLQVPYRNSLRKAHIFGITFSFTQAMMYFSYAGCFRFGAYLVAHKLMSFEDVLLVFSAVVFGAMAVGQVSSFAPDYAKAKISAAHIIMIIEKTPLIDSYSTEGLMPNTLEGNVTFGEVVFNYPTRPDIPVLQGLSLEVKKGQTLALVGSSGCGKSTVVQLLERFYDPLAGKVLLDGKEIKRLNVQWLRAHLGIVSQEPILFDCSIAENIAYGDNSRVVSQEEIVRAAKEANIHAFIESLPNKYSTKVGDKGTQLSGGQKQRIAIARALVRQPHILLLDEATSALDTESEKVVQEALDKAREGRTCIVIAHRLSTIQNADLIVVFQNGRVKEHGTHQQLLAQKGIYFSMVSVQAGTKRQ
compound,measurement,setting,value
CCCC(=O)Nc1ccc(OCC(O)CNC(C)C)c(C(C)=O)c1 (centres unmarked) [Acebutolol],"viability at 96 h, 1 µM",[1],98.5%
same,"viability at 96 h, 10 µM",[1],97.5%
same,"Papp at 2 h, 10 μM",[2],0.4 ×10⁻⁶ cm/s
Nc1nc2c(ncn2COCCO)c(=O)[nH]1 [Acyclovir],"viability at 96 h, 1 µM",[1],104%
same,"viability at 96 h, 10 µM",[1],97.6%
same,"viability at 96 h, 100 µM",[1],91.1%
same,"Papp at 2 h, 10 μM",[2],0.9 ×10⁻⁶ cm/s
CN/C(=N/CCSCc1nc[nH]c1C)NC#N [Cimetidine],"viability at 96 h, 1 µM",[1],109%
same,"viability at 96 h, 10 µM",[1],103%
same,"viability at 96 h, 100 µM",[1],96.1%
same,"Papp at 2 h, 10 μM",[2],2.7 ×10⁻⁶ cm/s
C[C@H]1O[C@@H](O[C@H]2[C@@H](O)C[C@H](O[C@H]3[C@@H](O)C[C@H](O[C@H]4CC[C@@]5(C)[C@H](CC[C@@H]6[C@@H]5C[C@@H](O)[C@]5(C)[C@@H](C7=CC(=O)OC7)CC[C@]65O)C4)O[C@@H]3C)O[C@@H]2C)C[C@H](O)[C@@H]1O [Digoxin],"Papp B→A at 2 h, 10 μM",[3],29 ± 5 ×10⁻⁶ cm/s
same,"Papp at 2 h, 10 μM",[3],12.6 ± 0.74 ×10⁻⁶ cm/s
same,"efflux ratio at 2 h, 10 μM",[3],2.3
same,"Papp at 2 h, 10 μM",[3]; with Verapamil 100 uM,16 ± 1.75 ×10⁻⁶ cm/s
same,"efflux ratio at 2 h, 10 μM",[3]; with Verapamil 100 uM,1.4
CCOC(=O)[C@H](CCc1ccccc1)N[C@@H](C)C(=O)N1CCC[C@H]1C(=O)O [Enalapril],"viability at 96 h, 1 µM",[1],109%
same,"viability at 96 h, 10 µM",[1],105%
same,"viability at 96 h, 100 µM",[1],99%
same,"Papp at 2 h, 10 μM",[2],0.2 ×10⁻⁶ cm/s
CC[C@H]1OC(=O)[C@H](C)[C@@H](O[C@H]2C[C@@](C)(OC)[C@@H](O)[C@H](C)O2)[C@H](C)[C@@H](O[C@@H]2O[C@H](C)C[C@H](N(C)C)[C@H]2O)[C@](C)(O)C[C@@H](C)C(=O)[C@H](C)[C@@H](O)[C@]1(C)O [Erythromycin],"Papp at 2 h, 10 μM",[2],0.2 ×10⁻⁶ cm/s
O=C1NC(c2ccccc2)(c2ccccc2)C(=O)N1COP(=O)(O)O [Fosphenytoin],"Papp A→B at 2 h, 10 μM",[4]; Transport A-B,12.3 ×10⁻⁶ cm/s
same,"Papp A→B at 2 h, 10 μM",[4]; line Transport B-A,3.77 ×10⁻⁶ cm/s
same,Efflux,[5],0.31
CN(C)C(=O)C(CCN1CCC(O)(c2ccc(Cl)cc2)CC1)(c1ccccc1)c1ccccc1 [Loperamide],"efflux ratio at 2 h, 10 μM","[3]; Efflux ratio, with inhibitor Verapamil 100 uM, substrate 10 μM, 2 hr",6.5
same,"Papp at 2 h, 10 μM","[3]; Mean A- > B Papp, No Inhibitor, substrate 10 μM, 2 hr, n = 3",0.9 ×10⁻⁶ cm/s
same,"Papp B→A at 2 h, 10 μM","[3]; Mean B- > A Papp, No Inhibitor, substrate 10 μM, 2 hr, n = 3",15.5 ± 4.6 ×10⁻⁶ cm/s
Cc1ncc2n1-c1ccc(Cl)cc1C(c1ccccc1F)=NC2 [Midazolam],"Papp A→B at 2 h, 10 μM",[4]; Transport A-B,14.4 ×10⁻⁶ cm/s
same,"Papp A→B at 2 h, 10 μM",[4]; line Transport B-A,13.7 ×10⁻⁶ cm/s
same,Efflux,[5],0.95
O=C1CN(/N=C/c2ccc([N+](=O)[O-])o2)C(=O)N1 [Nitrofurantoin],"Papp B→A at 2 h, 10 μM",[6],28.4 ± 3.3 ×10⁻⁶ cm/s
same,"Papp at 2 h, 10 μM",[6],2.7 ± 1.6 ×10⁻⁶ cm/s
same,"Papp B→A at 2 h, 10 μM",[6]; with Novobiocin 50 uM,18.9 ± 1 ×10⁻⁶ cm/s
same,"Papp at 2 h, 10 μM",[6]; with Novobiocin 50 uM,4.7 ± 0.65 ×10⁻⁶ cm/s
CC(C)NCC(O)COc1cccc2ccccc12 (centres unmarked) [Propranolol],Caco-2 mean A- > B Papp,[7],12.9 10^−6 cm s^−1
C=C[C@H]1C[N@@]2CC[C@H]1C[C@@H]2[C@@H](O)c1ccnc2ccc(OC)cc12 [Quinidine],"viability at 96 h, 1 µM",[1],99.4%
same,"viability at 96 h, 10 µM",[1],100%
same,"viability at 96 h, 100 µM",[1],99.3%
same,Fraction absorbed (%) in humans,[8]; in vivo,80%
CNC(=C[N+](=O)[O-])NCCSCc1ccc(CN(C)C)o1 [Ranitidine],"viability at 96 h, 1 µM",[1],102%
same,"viability at 96 h, 10 µM",[1],98.1%
same,"viability at 96 h, 100 µM",[1],96%
same,Fraction absorbed in humans (class),"[8]; Table IX, class in brackets, no reference given",Moderate
same,Papp A- > B SMI microtissues,"[5]; Table V, mean of n = 2 SMI microtissue lots",2.2 ± 0.5 10^−6 cm^s−1
same,"Papp A→B at 2 h, 10 μM",[2],0.2 ×10⁻⁶ cm/s
same,"Papp at 2 h, 10 μM",[2],0.1 ×10⁻⁶ cm/s
CC(C)c1nc(N(C)S(C)(=O)=O)nc(-c2ccc(F)cc2)c1/C=C/[C@@H](O)C[C@@H](O)CC(=O)O [Rosuvastatin],"Papp B→A at 2 h, 10 μM",[3],9.4 ± 1 ×10⁻⁶ cm/s
same,"Papp at 2 h, 10 μM",[3],0.5 ± 0.07 ×10⁻⁶ cm/s
same,"Papp B→A at 2 h, 10 μM",[3]; with Elacider 100 uM,5.3 ± 0.3 ×10⁻⁶ cm/s
CC(=O)CC(c1ccccc1)c1c(O)c2ccccc2oc1=O (centres unmarked) [Warfarin],Papp A- > B SMI microtissues,[9],22.3 ± 0.5 10^−6 cm^s−1
same,"Papp at 2 h, 10 μM",[10]; Lot #1 Mean A- > B Papp,48.5 ± 8.18 ×10⁻⁶ cm/s
same,"Papp at 2 h, 10 μM",[10]; Lot #2 Mean A- > B Papp,24.3 ± 0.86 ×10⁻⁶ cm/s
same,"Papp at 2 h, 10 μM",[10]; Lot #3 Mean A- > B Papp,19.9 ± 3.45 ×10⁻⁶ cm/s
same,"Papp at 2 h, 10 μM",[10]; SMI mean A- > B Papp,36.7 ± 16.8 ×10⁻⁶ cm/s
same,"Papp A→B at 2 h, 10 μM",[2],27.8 ± 7.6 ×10⁻⁶ cm/s
same,"Papp at 2 h, 10 μM",[2],28.6 ×10⁻⁶ cm/s
